Results reported in ChEMBL document CHEMBL1201862, “PubChem BioAssay data set” (2004).
Calls of active or inactive are those of the source.

Tests used:
[1] = biological target: Serine/threonine-protein kinase pim-1 (Homo sapiens, UniProt P11309); assay type: functional
Activated CDC42 kinase 1 = Activated CDC42 kinase 1 (Homo sapiens, UniProt Q07912); assay: Navigating the Kinome. Panel member name: ACK1; assay type: functional
[2] = biological target: RAC-alpha serine/threonine-protein kinase (Homo sapiens, UniProt P31749); assay type: functional;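 further: AKT1 affinity measured as one member of a kinome-wide kinase profiling panel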
[3] = biological target: Macrophage colony-stimulating factor 1 receptor (Homo sapiens, UniProt P07333); assay type: functional;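 further: value comes from the Navigating the Kinome screening panel, CSF1R member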
[4] = biological target: cGMP-dependent protein kinase 1 (Homo sapiens, UniProt Q13976); assay type: functional;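 further: value from a kinome panel screen with PRKG1 as the panel member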
Aurora kinase B = Aurora kinase B (Homo sapiens, UniProt Q96GD4); assay type: functional
[5] = biological target: MAP kinase-interacting serine/threonine-protein kinase 2 (Homo sapiens, UniProt Q9HBH9); assay type: functional
[6] = biological target: Mitogen-activated protein kinase 1 (Homo sapiens, UniProt P28482); assay type: functional
[7] = biological target: Serine/threonine-protein kinase PLK3 (Homo sapiens, UniProt Q9H4B4); assay type: functional
[8] = biological target: Mitogen-activated protein kinase 9 (Homo sapiens, UniProt P45984); assay type: functional;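 further: value from a kinome panel profiling assay, MAPK9 panel entry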
[9] = biological target: RAC-gamma serine/threonine-protein kinase (Homo sapiens, UniProt Q9Y243); assay type: functional
[10] = biological target: High affinity nerve growth factor receptor (Homo sapiens, UniProt P04629); assay type: functional;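 further: NTRK1 tested as one member of a kinome-wide profiling panel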
[11] = biological target: Testis-specific serine/threonine-protein kinase 1 (Homo sapiens, UniProt Q9BXA7); assay type: functional
[12] = biological target: Mitogen-activated protein kinase 8 (Homo sapiens, UniProt P45983); assay type: functional;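 further: value comes from one member of a kinome-wide kinase profiling panel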
[13] = biological target: Serine/threonine-protein kinase pim-2 (Homo sapiens, UniProt Q9P1W9); assay type: functional;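 further: value comes from a broad kinase panel profiling study in which PIM2 was one of the panel members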
[14] = biological target: Interleukin-1 receptor-associated kinase 1 (Homo sapiens, UniProt P51617); assay type: functional;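 further: IRAK1 tested as one member of a kinome panel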
[15] = biological target: Vascular endothelial growth factor receptor 3 (Homo sapiens, UniProt P35916); assay type: functional;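 further: value from a kinome-wide profiling panel, with FLT4 as the panel member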
[16] = biological target: Serine/threonine-protein kinase Nek4 (Homo sapiens, UniProt P51957); assay type: functional
[17] = biological target: T1, 1-phosphatidylinositol 4,5-bisphosphate phosphodiesterase beta-3 (Homo sapiens, UniProt Q01970); assay: Fluorescence-based biochemical high throughput dose response assay to identify inhibitors of phospholipase C isozymes (PLC-B3).
T1 sequence (Q01970 whole entry): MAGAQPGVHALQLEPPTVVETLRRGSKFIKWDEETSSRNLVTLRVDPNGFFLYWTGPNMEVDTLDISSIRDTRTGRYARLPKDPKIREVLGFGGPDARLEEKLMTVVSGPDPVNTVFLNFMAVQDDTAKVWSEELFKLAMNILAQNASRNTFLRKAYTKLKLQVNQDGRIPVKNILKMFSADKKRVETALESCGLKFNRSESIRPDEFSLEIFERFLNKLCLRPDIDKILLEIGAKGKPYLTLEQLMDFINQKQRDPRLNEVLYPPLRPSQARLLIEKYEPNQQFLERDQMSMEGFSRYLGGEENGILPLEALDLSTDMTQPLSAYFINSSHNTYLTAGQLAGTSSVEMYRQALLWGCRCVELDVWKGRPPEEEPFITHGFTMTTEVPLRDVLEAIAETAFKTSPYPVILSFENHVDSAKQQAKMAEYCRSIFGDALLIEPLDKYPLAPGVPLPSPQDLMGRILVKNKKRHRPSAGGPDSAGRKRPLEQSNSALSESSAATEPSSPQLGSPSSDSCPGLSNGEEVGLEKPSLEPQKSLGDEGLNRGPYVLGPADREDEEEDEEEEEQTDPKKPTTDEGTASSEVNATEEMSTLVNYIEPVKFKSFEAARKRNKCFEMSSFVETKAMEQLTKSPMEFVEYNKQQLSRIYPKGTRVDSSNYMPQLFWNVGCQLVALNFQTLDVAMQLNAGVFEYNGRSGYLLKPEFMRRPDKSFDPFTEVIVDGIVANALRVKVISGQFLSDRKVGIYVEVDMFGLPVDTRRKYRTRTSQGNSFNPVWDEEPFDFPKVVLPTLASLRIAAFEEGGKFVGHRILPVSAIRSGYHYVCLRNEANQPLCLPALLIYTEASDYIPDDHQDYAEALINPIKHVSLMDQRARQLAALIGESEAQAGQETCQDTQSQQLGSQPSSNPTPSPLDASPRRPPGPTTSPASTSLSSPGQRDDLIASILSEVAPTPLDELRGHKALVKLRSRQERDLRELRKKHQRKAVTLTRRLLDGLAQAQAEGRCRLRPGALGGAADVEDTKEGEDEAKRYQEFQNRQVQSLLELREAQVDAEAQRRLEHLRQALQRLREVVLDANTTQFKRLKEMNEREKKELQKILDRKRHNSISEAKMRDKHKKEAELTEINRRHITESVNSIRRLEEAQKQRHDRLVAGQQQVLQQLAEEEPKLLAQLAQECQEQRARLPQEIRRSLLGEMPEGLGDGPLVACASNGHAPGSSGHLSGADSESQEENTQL

[18] = biological target: T2, Rac GTPase-activating protein 1 (Homo sapiens, UniProt Q9H0H5); assay: blockers of MgcRacGAP-driven Rac1 GTP hydrolysis – biochemical, ADP Hunter fluorescence, primary and confirmatory, confirmation (AID 624330); assay type: functional
T2 sequence (Q9H0H5 whole entry): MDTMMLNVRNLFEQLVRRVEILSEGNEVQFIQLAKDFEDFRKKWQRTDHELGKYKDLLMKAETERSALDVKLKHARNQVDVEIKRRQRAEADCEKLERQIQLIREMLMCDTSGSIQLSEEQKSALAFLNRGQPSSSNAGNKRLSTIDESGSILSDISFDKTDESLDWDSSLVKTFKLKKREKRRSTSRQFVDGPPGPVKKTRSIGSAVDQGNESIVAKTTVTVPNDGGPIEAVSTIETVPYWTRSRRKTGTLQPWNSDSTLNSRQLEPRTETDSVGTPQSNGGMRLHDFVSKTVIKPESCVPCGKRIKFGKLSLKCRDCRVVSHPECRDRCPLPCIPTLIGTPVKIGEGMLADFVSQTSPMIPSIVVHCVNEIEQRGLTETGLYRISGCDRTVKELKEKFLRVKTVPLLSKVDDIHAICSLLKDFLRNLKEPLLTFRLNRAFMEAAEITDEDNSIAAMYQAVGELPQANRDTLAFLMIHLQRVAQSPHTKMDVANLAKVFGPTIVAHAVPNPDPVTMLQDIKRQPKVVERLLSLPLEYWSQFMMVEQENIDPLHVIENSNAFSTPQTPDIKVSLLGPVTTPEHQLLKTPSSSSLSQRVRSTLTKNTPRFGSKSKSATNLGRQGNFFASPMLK

Chain of RAC-alpha serine/threonine-protein kinase (P31749 whole entry): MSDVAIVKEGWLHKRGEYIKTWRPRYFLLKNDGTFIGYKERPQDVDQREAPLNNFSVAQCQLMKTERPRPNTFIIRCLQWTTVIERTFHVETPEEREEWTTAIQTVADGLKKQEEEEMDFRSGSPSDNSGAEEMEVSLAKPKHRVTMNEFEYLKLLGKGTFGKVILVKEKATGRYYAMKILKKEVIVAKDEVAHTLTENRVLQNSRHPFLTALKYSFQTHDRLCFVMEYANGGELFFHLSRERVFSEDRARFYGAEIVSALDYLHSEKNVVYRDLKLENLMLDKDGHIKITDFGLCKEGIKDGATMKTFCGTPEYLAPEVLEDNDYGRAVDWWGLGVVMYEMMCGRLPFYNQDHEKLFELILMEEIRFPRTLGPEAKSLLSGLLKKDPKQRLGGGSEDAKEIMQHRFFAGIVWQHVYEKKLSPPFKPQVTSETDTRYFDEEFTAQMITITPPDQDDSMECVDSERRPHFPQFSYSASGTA
Chain of Testis-specific serine/threonine-protein kinase 1 (Q9BXA7 whole entry): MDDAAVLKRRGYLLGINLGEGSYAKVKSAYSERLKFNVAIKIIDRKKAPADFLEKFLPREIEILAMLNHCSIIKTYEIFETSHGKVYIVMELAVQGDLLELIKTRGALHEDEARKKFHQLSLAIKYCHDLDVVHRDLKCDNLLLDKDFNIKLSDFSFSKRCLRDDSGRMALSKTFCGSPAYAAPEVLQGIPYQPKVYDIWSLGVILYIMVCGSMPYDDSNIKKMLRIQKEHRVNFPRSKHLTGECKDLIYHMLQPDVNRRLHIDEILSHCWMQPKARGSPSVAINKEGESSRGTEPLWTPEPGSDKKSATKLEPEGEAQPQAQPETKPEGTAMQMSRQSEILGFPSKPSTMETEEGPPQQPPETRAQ
Chain of Serine/threonine-protein kinase Nek4 (P51957 whole entry): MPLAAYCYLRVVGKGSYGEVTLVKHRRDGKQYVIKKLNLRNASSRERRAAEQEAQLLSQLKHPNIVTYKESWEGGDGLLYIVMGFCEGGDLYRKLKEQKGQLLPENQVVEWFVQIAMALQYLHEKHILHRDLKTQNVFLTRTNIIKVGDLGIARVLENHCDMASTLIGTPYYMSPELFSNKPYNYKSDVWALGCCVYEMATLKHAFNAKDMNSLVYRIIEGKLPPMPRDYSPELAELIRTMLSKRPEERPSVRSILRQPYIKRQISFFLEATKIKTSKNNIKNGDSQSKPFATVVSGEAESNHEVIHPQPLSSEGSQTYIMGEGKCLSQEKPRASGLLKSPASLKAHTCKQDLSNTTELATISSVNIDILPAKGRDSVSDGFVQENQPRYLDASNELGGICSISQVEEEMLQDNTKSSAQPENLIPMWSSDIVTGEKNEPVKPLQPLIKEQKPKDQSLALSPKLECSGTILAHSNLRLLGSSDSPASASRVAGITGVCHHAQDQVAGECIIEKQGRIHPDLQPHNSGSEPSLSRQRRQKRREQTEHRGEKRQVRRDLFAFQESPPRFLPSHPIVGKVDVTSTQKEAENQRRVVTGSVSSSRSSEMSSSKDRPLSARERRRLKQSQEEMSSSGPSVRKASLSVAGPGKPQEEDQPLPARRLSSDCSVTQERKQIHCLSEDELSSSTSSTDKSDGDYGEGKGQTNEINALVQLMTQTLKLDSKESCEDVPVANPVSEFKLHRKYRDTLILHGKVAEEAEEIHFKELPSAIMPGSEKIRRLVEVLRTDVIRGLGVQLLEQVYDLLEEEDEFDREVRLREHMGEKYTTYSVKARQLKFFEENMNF
Chain of Mitogen-activated protein kinase 9 (P45984 whole entry): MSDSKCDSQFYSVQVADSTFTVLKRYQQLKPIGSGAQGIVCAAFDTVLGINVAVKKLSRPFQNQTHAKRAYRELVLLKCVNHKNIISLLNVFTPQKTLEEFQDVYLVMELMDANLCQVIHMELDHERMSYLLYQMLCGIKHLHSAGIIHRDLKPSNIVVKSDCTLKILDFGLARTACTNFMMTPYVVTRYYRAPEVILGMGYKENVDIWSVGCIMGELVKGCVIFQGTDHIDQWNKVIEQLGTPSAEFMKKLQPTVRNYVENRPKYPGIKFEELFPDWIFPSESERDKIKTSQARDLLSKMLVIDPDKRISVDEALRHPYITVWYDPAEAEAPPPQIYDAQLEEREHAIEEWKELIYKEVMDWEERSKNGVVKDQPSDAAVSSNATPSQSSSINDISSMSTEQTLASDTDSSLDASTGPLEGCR
Chain of Macrophage colony-stimulating factor 1 receptor (P07333 whole entry): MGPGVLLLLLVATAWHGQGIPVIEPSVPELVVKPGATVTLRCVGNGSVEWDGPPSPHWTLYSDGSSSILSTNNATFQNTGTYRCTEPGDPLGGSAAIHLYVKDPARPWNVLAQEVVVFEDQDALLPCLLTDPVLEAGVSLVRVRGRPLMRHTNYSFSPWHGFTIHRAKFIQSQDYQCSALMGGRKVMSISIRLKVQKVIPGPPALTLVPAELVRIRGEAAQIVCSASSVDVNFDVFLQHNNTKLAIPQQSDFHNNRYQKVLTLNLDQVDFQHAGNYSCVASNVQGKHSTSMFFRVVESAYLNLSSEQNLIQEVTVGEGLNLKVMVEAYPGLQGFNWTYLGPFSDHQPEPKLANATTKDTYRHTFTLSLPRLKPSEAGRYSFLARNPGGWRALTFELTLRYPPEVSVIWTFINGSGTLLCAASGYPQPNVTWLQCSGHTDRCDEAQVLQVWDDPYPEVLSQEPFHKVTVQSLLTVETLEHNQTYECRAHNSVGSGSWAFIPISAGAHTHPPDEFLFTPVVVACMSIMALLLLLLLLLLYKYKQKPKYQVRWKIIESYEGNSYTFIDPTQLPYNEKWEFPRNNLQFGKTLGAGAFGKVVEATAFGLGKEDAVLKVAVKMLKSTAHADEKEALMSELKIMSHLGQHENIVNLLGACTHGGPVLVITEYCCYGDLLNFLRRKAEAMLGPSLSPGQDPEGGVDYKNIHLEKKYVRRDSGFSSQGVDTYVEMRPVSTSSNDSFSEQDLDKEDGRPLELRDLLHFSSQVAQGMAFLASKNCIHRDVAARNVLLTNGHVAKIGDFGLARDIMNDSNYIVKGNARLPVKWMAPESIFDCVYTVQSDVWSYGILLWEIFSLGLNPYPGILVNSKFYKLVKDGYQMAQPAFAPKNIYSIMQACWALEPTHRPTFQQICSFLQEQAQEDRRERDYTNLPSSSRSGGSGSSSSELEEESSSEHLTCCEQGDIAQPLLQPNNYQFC
Chain of Serine/threonine-protein kinase pim-2 (Q9P1W9 whole entry): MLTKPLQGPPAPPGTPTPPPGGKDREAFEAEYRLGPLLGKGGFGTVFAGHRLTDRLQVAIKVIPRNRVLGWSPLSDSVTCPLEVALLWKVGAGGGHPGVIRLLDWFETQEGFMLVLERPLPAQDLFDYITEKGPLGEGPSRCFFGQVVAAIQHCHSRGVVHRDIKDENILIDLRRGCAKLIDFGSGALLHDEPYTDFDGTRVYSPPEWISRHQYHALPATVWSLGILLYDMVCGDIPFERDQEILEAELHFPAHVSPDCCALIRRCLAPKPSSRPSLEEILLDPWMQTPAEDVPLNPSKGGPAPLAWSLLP
Chain of Mitogen-activated protein kinase 8 (P45983 whole entry): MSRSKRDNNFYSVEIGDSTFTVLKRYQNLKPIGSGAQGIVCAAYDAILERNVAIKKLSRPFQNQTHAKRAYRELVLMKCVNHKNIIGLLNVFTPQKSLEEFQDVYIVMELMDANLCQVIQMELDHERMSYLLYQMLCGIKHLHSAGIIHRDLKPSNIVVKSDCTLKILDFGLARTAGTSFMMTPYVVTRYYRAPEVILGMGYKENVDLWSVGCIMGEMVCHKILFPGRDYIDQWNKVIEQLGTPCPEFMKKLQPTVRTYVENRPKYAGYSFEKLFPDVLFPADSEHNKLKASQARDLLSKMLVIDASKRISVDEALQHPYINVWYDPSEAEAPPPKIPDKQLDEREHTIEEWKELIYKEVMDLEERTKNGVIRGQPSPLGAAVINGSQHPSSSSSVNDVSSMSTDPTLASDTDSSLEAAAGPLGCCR
Chain of Serine/threonine-protein kinase pim-1 (P11309 whole entry): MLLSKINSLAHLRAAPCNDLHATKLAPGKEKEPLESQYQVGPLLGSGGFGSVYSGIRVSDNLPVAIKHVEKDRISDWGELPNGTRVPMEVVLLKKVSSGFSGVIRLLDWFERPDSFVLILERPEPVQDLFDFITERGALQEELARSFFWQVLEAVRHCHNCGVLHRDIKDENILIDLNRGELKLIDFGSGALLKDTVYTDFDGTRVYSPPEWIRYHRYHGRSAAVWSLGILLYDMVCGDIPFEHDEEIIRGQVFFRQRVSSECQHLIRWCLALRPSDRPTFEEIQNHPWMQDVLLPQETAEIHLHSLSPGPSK
Chain of Aurora kinase B (Q96GD4 whole entry): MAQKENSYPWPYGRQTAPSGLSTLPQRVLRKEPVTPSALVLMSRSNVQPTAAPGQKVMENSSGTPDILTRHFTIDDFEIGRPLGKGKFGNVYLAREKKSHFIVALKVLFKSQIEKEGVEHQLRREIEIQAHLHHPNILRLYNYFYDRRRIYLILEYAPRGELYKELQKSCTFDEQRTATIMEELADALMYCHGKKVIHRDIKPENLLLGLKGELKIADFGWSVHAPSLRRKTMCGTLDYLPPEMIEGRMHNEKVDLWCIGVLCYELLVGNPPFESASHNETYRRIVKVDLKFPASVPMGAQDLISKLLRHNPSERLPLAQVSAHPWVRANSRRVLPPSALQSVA
Chain of MAP kinase-interacting serine/threonine-protein kinase 2 (Q9HBH9 whole entry): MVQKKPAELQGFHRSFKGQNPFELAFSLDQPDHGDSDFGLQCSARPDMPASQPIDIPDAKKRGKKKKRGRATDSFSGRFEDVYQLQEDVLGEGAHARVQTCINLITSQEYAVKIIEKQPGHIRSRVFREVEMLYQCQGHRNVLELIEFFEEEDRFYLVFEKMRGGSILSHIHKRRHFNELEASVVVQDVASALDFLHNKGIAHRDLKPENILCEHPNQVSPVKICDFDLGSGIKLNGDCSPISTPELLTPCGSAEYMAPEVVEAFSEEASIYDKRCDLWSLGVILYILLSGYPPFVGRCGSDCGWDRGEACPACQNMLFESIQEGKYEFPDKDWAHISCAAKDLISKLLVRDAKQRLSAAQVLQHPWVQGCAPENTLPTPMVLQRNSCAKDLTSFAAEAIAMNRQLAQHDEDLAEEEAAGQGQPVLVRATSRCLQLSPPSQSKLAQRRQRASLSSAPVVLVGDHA

Ki [1]	Ki (Activated CDC42 kinase 1)	Ki [2]	Ki [3]	Ki [4]	Ki (Aurora kinase B)	Ki [5]	Ki [6]	Ki [7]	Ki [8]	Ki [9]	Ki [10]	Ki [11]	Ki [12]	Ki [13]	Ki [14]	Ki [15]	Ki [16]	Compound	IC50 [17]	IC50 [18]
> 3980 nM (inactive)	> 3980 nM (inactive)	2000 nM (active)	> 1580 nM (inactive)	501 nM (active)	1000 nM (active)	1260 nM (active)	7940 nM (active)	3980 nM (active)	3160 nM (active)	> 10000 nM (inactive)	> 2510 nM (inactive)	251 nM (active)	2510 nM (active)	> 2000 nM (inactive)	2510 nM (active)	1000 nM (active)	2510 nM (active)	Clc1cc(NC2CCCCC2)nc(-c2c[nH]c3ncccc23)n1		
																		Cc1ccc(/C=C2/C(=O)c3ccc(C(=O)O)cc3C2=O)o1	> 122000 nM (inactive)	294000 nM (active)
